The numbers were not newly measured in article PMC4826315 (Journal of molecular biology, 2016), which cites them from elsewhere.

One series concerns retinoblastoma tumors. Conditions: mouse model system.
The next series relates to Mdm2. The settings on record: read-out: IC50, inhibition of p53 binding to Mdm2; FP assay.

The IC50 is the concentration that gives 50% inhibition. In the case of `COc1ccc(C2=N[C@@H](c3ccc(Cl)cc3)[C@@H](c3ccc(Cl)cc3)N2C(=O)N2CCNC(=O)C2)c(OC(C)C)c1` [Nutlin-3a], the “effect on retinoblastoma tumors” value with retinoblastoma tumors is “caused regression of retinoblastoma tumors”. Also, the IC50 in the series on Mdm2 is […].
